{"source": "patent US20040033943A1", "about": "“Hcn polypeptides and polynucleotides and their use in therapy” (priority 2000, published 2004)", "key": {"[1]": {"test_system": "organotypic hippocampal slice cultures, hippocampal CA1 region", "assay": "Oxygen/glucose deprivation of hippocampal organotypic slice cultures (PI staining)", "format": "cell-based, Lister Hooded rat"}, "[2]": {"test_system": "primary hippocampal neurons", "assay": "Excitotoxicity in dispersed primary hippocampal cultures (MTT cell survival)", "format": "cell-based, Sprague Dawley rat"}, "Ih": {"test_system": "Ih", "assay": "Whole-cell patch-clamp detection of Ih in neurones from both culture models", "format": "cell-based, rat"}, "hippocampal cultures": {"test_system": "hippocampal cultures", "assay": "Spontaneous synaptic activity and membrane potential in hippocampal cultures, Mg2+-free insult", "format": "cell-based, rat", "conditions": "100 μM; applied before, during or after the Mg2+-free insult", "protocol": "When Mg^2+ containing medium was reinstated 15 mins later there was a sustained increase in spontaneous activity above that recorded prior to the Mg^2+ free challenge. No change in the magnitude of the Ih current was recorded during or after the Mg^2+ free challenge. […] This reduction in activity differed from that induced by the NMDA receptor antagonist AP5 in that the frequency of activity in the presence of ZD7288 was much lower, yet individual events were much larger, than that observed in AP5."}, "[3]": {"test_system": "voltage-gated Na+ and K+ channels", "assay": "Selectivity: action potential firing", "format": "cell-based", "conditions": "100 μM"}, "[4]": {"test_system": "voltage-gated Ca2+ channel", "assay": "Selectivity: voltage-gated Ca2+ channel activation", "format": "cell-based", "conditions": "100 μM"}, "NMDA receptor": {"test_system": "NMDA receptor", "format": "cell-based"}, "[5]": {"test_system": "metabotropic glutamate receptor", "assay": "Selectivity: metabotropic glutamate receptor activation", "format": "cell-based", "conditions": "100 μM"}, "hippocampal slices": {"test_system": "hippocampal slices", "assay": "Epileptiform bursting activity in hippocampal slices (field recordings, area CA3)", "format": "cell-based, rat", "conditions": "irrespective of model: bicuculline, Mg2+-free, 4-AP, Ca2+-free/elevated K+", "protocol": "Hippocampal slices were prepared from 4-6 week old rats that had been sacrificed by cervical dislocation and subsequent decapitation in accordance with UK Home Office guidelines. The brain was removed rapidly and hippocampal slices prepared by cutting 400 μm thick horizontal sections through the whole brain minus the cerebellum using a vibroslicer (Campden Instruments, Loughborough, UK). The hippocampus from these sections was dissected free from the surrounding brain regions and the resultant hippocampal slices placed on a nylon mesh at the interface of a warmed (32-34° C.), perfusing (1-2 ml.min^−1) artificial cerebrospinal fluid (aCSF) and an oxygen-enriched (95% O2, 5% CO2), humidified atmosphere. The standard perfusion medium comprised (mM): NaCl, 124; KCl, 3; NaHCO3, 26; NaH2PO4, 1.25; CaCl2, 2; MgSO4, 1; D-glucose, 10; and was bubbled with 95% O2, 5% CO2. Extracellular field potential recordings were made using glass microelectrodes (24 MΩ) filled with aCSF placed in stratum pyramidale in area CA3. […] Non synaptic field bursting activity (that is relevant to both epilepsy and migraine) was induced by removal of extracellular Ca^2+ and elevation of extracellular K^+ from 3 mM to 6-8 mM (FIG. 12)."}, "SCN neurones": {"test_system": "SCN neurones", "assay": "Suprachiasmatic nucleus slices, extracellular single unit recordings", "format": "cell-based, rat", "conditions": "10-100 μM; all neurones tested", "protocol": "Supraachiasmatic nucleus slices were prepared from 4-6 week old rats that had been sacrificed by cervical dislocation and subsequent decapitation in accordance with UK Home Office guidelines. The brain was removed rapidly and SCN slices prepared by cutting 400 μm thick coronal sections through the whole brain minus the cerebellum using a vibroslicer (Campden Instruments, Loughborough, UK). The resultant SCN slices were placed in a warmed (32-34° C.) submersion recording chamber perfused at 1-2 ml.min^−1 with an oxygen-enriched (95% O2, 5% CO2) artificial cerebrospinal fluid (aCSF) comprised of (mM): NaCl, 124; KCl, 3; NaHCO3, 26; NaH2PO4, 1.25; CaCl2, 2; MgSO4, 1; D-glucose, 10. Extracellular single unit recordings were made using glass microelectrodes (24 MΩ) filled with aCSF placed in the SCN."}, "HCN channels": {"test_system": "HCN channels", "conditions": "non use-dependent; cited from earlier work"}}, "note": "Like-named read-outs stand apart in the source and are kept apart here.", "data": [{"compound": "CCN(c1ccccc1)c1cc(=NC)n(C)c(C)n1.Cl", "note": "[ZD7288, N-ethyl-1,6-dihydro-1,2-dimethyl-6-(methylimino)-N-phenyl-4-pyrimidinamine hydrochloride]", "values": [{"measurement": "DAMAGE (% Cell Loss)", "setting": "[1]; 100 nM, added 60 minutes before, during, and for 24 h after the insult", "value": "64.01 ± 4.66", "unit": "%"}, {"measurement": "DAMAGE (% Cell Loss)", "setting": "[1]; 300 nM, added 60 minutes before, during, and for 24 h after the insult", "value": "15.12 ± 9.54", "unit": "%"}, {"measurement": "DAMAGE (% Cell Loss)", "setting": "[1]; 1 μM, added 60 minutes before, during, and for 24 h after the insult", "value": "0.72 ± 0.44", "unit": "%"}, {"measurement": "DAMAGE (% Cell Loss)", "setting": "[1]; 10 μM, added 60 minutes before, during, and for 24 h after the insult", "value": "4.58 ± 3.09", "unit": "%"}, {"measurement": "DAMAGE (% Cell Loss)", "setting": "[1]; 100 μM, added immediately after the insult and for the 24 h recovery period only", "value": "12.50 ± 8.24", "unit": "%"}, {"measurement": "neuroprotection", "setting": "[1]; applied immediately after oxygen glucose deprivation, FIG. 3", "value": "neuroprotection was still observed"}, {"measurement": "electrophysiological responses in stratum pyramidale and stratum radiatum of area CA1", "setting": "[1]; treated slices subjected to OGD, single-shock electrical stimulation in stratum radiatum, FIG. 3", "value": "possible to evoke normal electrophysiological responses"}, {"measurement": "NEURONAL SURVIVAL (%)", "setting": "[2]; 1 μM, added 30 minutes before, during, and for 24 h after the insult", "value": "40.6 ± 4.9", "unit": "%"}, {"measurement": "NEURONAL SURVIVAL (%)", "setting": "[2]; 3 μM, added 30 minutes before, during, and for 24 h after the insult", "value": "40.1 ± 8.1", "unit": "%"}, {"measurement": "NEURONAL SURVIVAL (%)", "setting": "[2]; 10 μM, added 30 minutes before, during, and for 24 h after the insult", "value": "48.4 ± 5.5", "unit": "%"}, {"measurement": "NEURONAL SURVIVAL (%)", "setting": "[2]; 30 μM, added 30 minutes before, during, and for 24 h after the insult", "value": "56.7 ± 2.0", "unit": "%"}, {"measurement": "NEURONAL SURVIVAL (%)", "setting": "[2]; 100 μM, added 30 minutes before, during, and for 24 h after the insult", "value": "65.9 ± 3.7", "unit": "%"}, {"measurement": "NEURONAL SURVIVAL (%)", "setting": "[2]; 100 μM, added during the 24 h recovery period only", "value": "78.0 ± 5.5", "unit": "%"}, {"measurement": "NEURONAL SURVIVAL (%)", "setting": "[2]; 100 μM, added during the insult only", "value": "79.5 ± 2.1", "unit": "%"}, {"measurement": "NEURONAL SURVIVAL (%)", "setting": "[2]; 300 μM, added 30 minutes before, during, and for 24 h after the insult", "value": "88.5 ± 2.7", "unit": "%"}, {"measurement": "NEURONAL SURVIVAL (%)", "setting": "[2]; 300 μM, added during the 24 h recovery period only", "value": "101.0 ± 1.2", "unit": "%"}, {"measurement": "NEURONAL SURVIVAL (%)", "setting": "[2]; 300 μM, added during the insult only", "value": "97.9 ± 9.6", "unit": "%"}, {"measurement": "delay of application after the insult without loss of neuroprotective efficacy", "setting": "[2]; FIG. 4", "value": "up to 60 minutes"}, {"measurement": "IC50", "setting": "[2]; Rattus norvegicus, Hippocampal neuron, hippocampal neurones, read-out: IC50 for inhibition of damage", "value": "~120", "unit": "µM"}, {"measurement": "block of Ih", "setting": "Ih; 100 μM", "value": "almost completely blocked"}, {"measurement": "inhibition of hyperpolarization-activated current (Ih)", "setting": "Ih; 0.1-100 μM", "value": "inhibited"}, {"measurement": "effect on membrane potential / current", "setting": "hippocampal cultures", "value": "induced a membrane potential hyperpolarization/outward current"}, {"measurement": "effect on spontaneous activity", "setting": "hippocampal cultures", "value": "reduced spontaneous activity"}, {"measurement": "direct effects on action potential firing (activation of voltage-gated Na+ and K+ channels)", "setting": "[3]", "value": "no direct effects"}, {"measurement": "direct effects on voltage-gated Ca2+ channel activation", "setting": "[4]", "value": "no direct effects"}, {"measurement": "direct effects on NMDA receptor activation", "setting": "NMDA receptor", "value": "no direct effects"}, {"measurement": "direct effects on metabotropic glutamate receptor activation", "setting": "[5]", "value": "no direct effects"}, {"measurement": "effect on epileptiform bursting activity", "setting": "hippocampal slices", "value": "concentration dependent inhibition"}, {"measurement": "effect on frequency of single unit firing", "setting": "SCN neurones", "value": "concentration dependent reduction"}, {"measurement": "concentration range inhibiting HCN channels", "setting": "HCN channels", "value": "1 to 300", "unit": "µM"}]}, {"compound": "C[C@]12N[C@H](Cc3ccccc31)c1ccccc12", "note": "[MK-801]", "values": [{"measurement": "DAMAGE (% Cell Loss)", "setting": "[1]", "value": "34.90 ± 15.99", "unit": "%"}, {"measurement": "NEURONAL SURVIVAL (%)", "setting": "[2]", "value": "101 ± 1.2", "unit": "%"}]}]}
